One series relates to SARS-CoV-2-Nluc viruses. Nature of the series: microbe, parasite or virus in culture. The format is cell-based.
A short description of series [1]: in vitro. The format is cell-based. Conditions: human. As for the experimental part:
(§1) 12k cells (A549) per well in a 96-well plate. The compounds are added on the next day. 48 hrs treatment. 3-fold serial dilution for ASLAN 003 starting from 10 μM.

For another series, the system named is A549 cells. Briefly: in vitro. The format is cell-based. Conditions: human, 48 h. On the procedure: as §1
Series [2] in a line: in vitro. In kind it is cell-based. Conditions: African green monkey. On the procedure: Vero E6 cells were treated with the above compounds ata range of concentrations (0.0001, 0.001, 0.01, 1,10, 30, 50, and 100 μM) and incubated for 4 days. After incubation, the media was removed from the plates and washed once with PBS before addition of alamarBlue Cell Viability Reagent (Thermo Fisher Scientific) diluted 1:10 in media with 2% FCS. Fluorescence was detected after 2.5 h incubation at an excitation wavelength of 570 nm and an emission wavelength of 600 nm on an Infinite 200 Pro multiplate reader (Tecan). Data obtained from compound-treated cells and vehicle-treated cells were normalised against those obtained from untreated cells.

Series [3] relates to SARS-CoV-2 (hCoV-19/Singapore/10/2020). Nature of the series: Dose-dependent inhibition assay with plaque assay titration in Vero E6 cells. The format is cell-based.
Series [4] has as its system Dengue virus (serotypes 1, 2, 3 or 4). Nature of the series: Dengue virus assay in Huh7 cells (viral titer). In kind it is cell-based.
Another series deals with Zika virus. Nature of the series: Zika virus assay in Huh7 cells (viral titer). In kind it is cell-based.
For the next series, the system named is CHIKV. Nature of the series: Chikungunya virus assay in Huh7 cells (viral titer). In kind it is cell-based.
For series [5] the following is noted: human, in vivo.
A further series can be described thus: clinical. Conditions: human, in vivo.
The mark [6] stands for this setting: Severe acute respiratory syndrome coronavirus 2, Vero C1008, 96 h.

Take `COc1cccc(-c2cc(F)c(Nc3ncccc3C(=O)O)c(F)c2)c1` [ASLAN003, 2-(3,5-difluoro-3′-methoxybiphenyl-4-ylamino) nicotinic acid]: the “efficacy (potency) against SARS-CoV-2” value with SARS-CoV-2-Nluc viruses is reported as “sub-micromolar potency”. For the same compound, the IC50 with SARS-CoV-2-Nluc viruses (Severe acute respiratory syndrome coronavirus 2, 48 h, read-out: SARS-COV-2 Reporter Assay (IC50, μM)) turned out to be 0.812 µM. Moreover, the IC50 at 48 h in the series “in vitro [1]” is over 10000 nM. In addition, in the series with A549 cells, the IC50 was over 10000 nM and the “change in A549 cell viability” value is reported as “no change in A549 cell viability”. The same compound yielded a CC50 at 4 days in the series “in vitro [2]” of 87200 nM. In series [3] (setting [6]), a half-maximal response (EC50) required 1.42 nM and it took 3.88 nM to reach the 90% level (EC90). The “inhibition of SARS-CoV-2 in Vero E6 cells (viral titre)” value in [3] (treated post virus infection, 0.0001 to 100 μM) is recorded as “Dosage dependent inhibition”. Further, in series [4], the “efficacy (potency) against Dengue” value is “sub-micromolar potency”. In the series with Zika virus, the “efficacy (potency) against Zika” value is listed as “sub-micromolar potency”. In the series with CHIKV, the “efficacy (potency) against Chikugunya” value is given as “sub-micromolar potency”. In addition, in [5], the “PK profiles in Asian and Caucasian patients” value is “equivalent”; the “safety and tolerability, liver enzyme rises” value was “safe and well-tolerated with no evidence of significant liver enzyme rises”; the “time until full exposure is achieved” value is at most 24 h. The same compound showed a half-life in “clinical” of 18 h.

Usually IC50 stands for the concentration needed to halve the response being measured. The CC50 is the concentration that lowers cell viability or growth by half. As usually defined, the EC50 is the concentration at which the effect is half-maximal. By EC90 is commonly meant the concentration at which the effect reaches the 90% level. The term half-life denotes the time in which the quantity being followed falls by half.

Values taken from US20230355602A1, “TREATMENT AND/OR PREVENTION OF A VIRAL INFECTION” (priority 2020, published 2023).
